Source: the supplement of paper PMC8671470
Where a name gives a salt, the structure may show the parent alone.

Key:
Details in all cases: 72 h
HL-60 [1] = test: cell viability (% survival relative to DMSO control); higher = less cytotoxic
Method in brief: (§1)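 A rescreen of the full library used HL-60 cells in RPMI 1640 with 10% FBS on 384-well plates, run in duplicate at five tenfold concentrations (1–10,000 nM). Each screen included DMSO or 100 nM of one of three metabolic inhibitors and ran 72 h at 37 °C, 5% CO2. CellTiter-Glo viability was scaled between DMSO and 10 μM proteasome-inhibitor wells. Any area under the curve comes from four-parameter log-logistic fits with drc and PharmacoGx.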

HL-60 [2] = test: area under dose-response curve (viability, 1 nM-10 uM) (fraction (0-1)); higher = more sensitive
Method in brief: as §1

BV-173 [3] = tested on: BV-173
Method in brief: (§2)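 Fifteen myeloid leukaemia lines were incubated for 72 h at 37 °C with 5% CO2 across five tenfold doses from 1 to 10,000 nM, in duplicate. ATP luminescence was normalised to vehicle and to a positive control at 10 µM and fitted with a four-parameter log-logistic model. The IC50 came from these dose–response fits.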

HL-60 [4] = tested on: HL-60
Method in brief: as §2

K-562 [5] = tested on: K-562
Method in brief: as §2

KU-812 [6] = tested on: KU-812
Method in brief: as §2

LAMA-84 [7] = tested on: LAMA-84
Method in brief: as §2

MOLM-13 [8] = tested on: MOLM-13
Method in brief: as §2

MV4-11 [9] = tested on: MV4-11
Method in brief: as §2

Mono-Mac-6 [10] = tested on: Mono-Mac-6
Method in brief: as §2

NOMO-1 [11] = tested on: NOMO-1
Method in brief: as §2

SHI-1 [12] = tested on: SHI-1
Method in brief: as §2

THP-1 [13] = tested on: THP-1
Method in brief: as §2

BV-173 [14] = test: cell viability (% survival relative to DMSO control, bortezomib = 0%); higher = less cytotoxic
Method in brief: (§3)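 Percent survival is reported as the mean of duplicate wells. Cells from 10 AML and 5 CML lines were plated in 384-well plates containing compounds at 1, 10, 100, 1000 or 10000 nM and kept for 72 h at 37 °C in 5% CO2. Readout used CellTiter-Glo luminescence, scaled so that vehicle equals 100% and a 10 µM positive control equals 0%.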

HL-60 [15] = test: as above
Method in brief: as §3

K-562 [16] = test: as above
Method in brief: as §3

KU-812 [17] = test: as above
Method in brief: as §3

LAMA-84 [18] = test: as above
Method in brief: as §3

MOLM-13 [19] = test: as above
Method in brief: as §3

MV4-11 [20] = test: as above
Method in brief: as §3

Mono-Mac-6 [21] = test: as above
Method in brief: as §3

NOMO-1 [22] = test: as above
Method in brief: as §3

SHI-1 [23] = test: as above
Method in brief: as §3

THP-1 [24] = test: as above
Method in brief: as §3

HEL [25] = tested on: HEL
Method in brief: as §2

KCL-22 [26] = tested on: KCL-22
Method in brief: as §2

KG-1 [27] = tested on: KG-1
Method in brief: as §2

ML-2 [28] = tested on: ML-2
Method in brief: as §2

HEL [29] = test: cell viability (% survival relative to DMSO control, bortezomib = 0%); higher = less cytotoxic
Method in brief: as §3

KCL-22 [30] = test: as above
Method in brief: as §3

KG-1 [31] = test: as above
Method in brief: as §3

ML-2 [32] = test: as above
Method in brief: as §3

[33] = tested on: myeloid leukemia patient primary cells Pat.10; test: area under dose-response curve (viability, 1 nM-10 uM) (fraction (0-1)); higher = more sensitive
Protocol: (§4)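 AUC (0–1, higher = more sensitive) of the 5-point dose–response (1 nM–10 µM, 72 h, CellTiter-Glo) in primary AML/CML patient mononuclear cells. 0.030103 is the floor for inactive compounds.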

[34] = tested on: myeloid leukemia patient primary cells Pat.11; test: as above
Protocol: as §4

[35] = tested on: myeloid leukemia patient primary cells Pat.12; test: as above
Protocol: as §4

[36] = tested on: myeloid leukemia patient primary cells Pat.13; test: as above
Protocol: as §4

[37] = tested on: myeloid leukemia patient primary cells Pat.14; test: as above
Protocol: as §4

[38] = tested on: myeloid leukemia patient primary cells Pat.15; test: as above
Protocol: as §4

[39] = tested on: myeloid leukemia patient primary cells Pat.1; test: as above
Protocol: as §4

[40] = tested on: myeloid leukemia patient primary cells Pat.2; test: as above
Protocol: as §4

[41] = tested on: myeloid leukemia patient primary cells Pat.3; test: as above
Protocol: as §4

[42] = tested on: myeloid leukemia patient primary cells Pat.4; test: as above
Protocol: as §4

[43] = tested on: myeloid leukemia patient primary cells Pat.5; test: as above
Protocol: as §4

[44] = tested on: myeloid leukemia patient primary cells Pat.6; test: as above
Protocol: as §4

[45] = tested on: myeloid leukemia patient primary cells Pat.7; test: as above
Protocol: as §4

[46] = tested on: myeloid leukemia patient primary cells Pat.8; test: as above
Protocol: as §4

[47] = tested on: myeloid leukemia patient primary cells Pat.9; test: as above
Protocol: as §4

N#Cc1ccnc(N2C(=O)CC[C@H]2C(=O)N(c2cncc(F)c2)[C@H](C(=O)NC2CC(F)(F)C2)c2ccccc2Cl)c1 [AG-120]
cell viability [%], HL-60 [1]
Details	0.001 µM	0.01 µM	0.1 µM	1 µM	10 µM
co-treatment: AZD3965 100 nM	102	86.8	113	91	102
co-treatment: DMSO vehicle	104	98.74	99.6	97.6	99.14
co-treatment: GSK2194069 100 nM	93.1	101	99.8	92.3	88.3
co-treatment: pictilisib 100 nM	92.9	98.2	104	77.1	98.6

HL-60 [2]
Details	area under dose-response curve
co-treatment: AZD3965 100 nM	< 0.0301
co-treatment: DMSO vehicle	< 0.0301
co-treatment: GSK2194069 100 nM	< 0.0301
co-treatment: pictilisib 100 nM	< 0.0301

O=C(Nc1ccccc1)c1cc([N+](=O)[O-])ccc1Cl [GW9662]
Details	IC50 (cell viability) [µM]
BV-173 [3]	8.53
HL-60 [4]	> 10
K-562 [5]	> 10
KU-812 [6]	> 10
LAMA-84 [7]	> 10
MOLM-13 [8]	> 10
MV4-11 [9]	8.81
Mono-Mac-6 [10]	> 10
NOMO-1 [11]	> 10
SHI-1 [12]	> 10
THP-1 [13]	> 10

cell viability [%]
Details	1 nM	10 nM	100 nM	1000 nM	10000 nM
BV-173 [14]	103	95.7	113	91.8	56.6
HL-60 [15]	90.2	98.8	98.2	106	72.6
K-562 [16]	112	102	105	108	65.4
KU-812 [17]	97.9	102	113	87.3	71.7
LAMA-84 [18]	98.7	95.9	110	101	90.5
MOLM-13 [19]	109	97	95.5	122	80.8
MV4-11 [20]	102	93.3	108	115	42.9
Mono-Mac-6 [21]	101	107	110	112	115
NOMO-1 [22]	95.6	96.4	97.3	102	91.8
SHI-1 [23]	111	104	103	107	93.8
THP-1 [24]	103	101	102	93.7	77.2

CC/C=C\C[C@H]1C(=O)CC[C@@H]1CC(=O)OC [Methyl jasmonate]
Details	IC50 (cell viability) [µM]
BV-173 [3]	> 10
HEL [25]	> 10
HL-60 [4]	> 10
K-562 [5]	> 10
KCL-22 [26]	> 10
KG-1 [27]	> 10
KU-812 [6]	> 10
LAMA-84 [7]	> 10
ML-2 [28]	> 10
MOLM-13 [8]	> 10
MV4-11 [9]	> 10
Mono-Mac-6 [10]	> 10
NOMO-1 [11]	> 10
SHI-1 [12]	> 10
THP-1 [13]	> 10

cell viability [%]
Details	1 nM	10 nM	100 nM	1000 nM	10000 nM
BV-173 [14]	108	111	103	93.2	103
HEL [29]	97.3	99.1	114	99.5	111
HL-60 [15]	92.7	99.1	105	96.5	111
K-562 [16]	90.2	95.9	104	102	91.5
KCL-22 [30]	109	99.9	96.9	91.9	103
KG-1 [31]	115	95.7	93.9	101	105
KU-812 [17]	99.3	108	110	99.1	104
LAMA-84 [18]	95.6	100	105	98.7	110
ML-2 [32]	115	110	101	99.9	108
MOLM-13 [19]	108	113	116	94.3	96.6
MV4-11 [20]	106	104	108	105	101
Mono-Mac-6 [21]	102	101	111	96.2	107
NOMO-1 [22]	104	110	101	93	100
SHI-1 [23]	98.8	94.2	90.8	99.3	98
THP-1 [24]	103	111	101	95.3	106

Cc1cc(CS(=O)(=O)c2ccccc2)cc(OCc2ccc(CN3CCC[C@@H]3CO)cc2)c1 [PF 543 hydrochloride]
cell viability [%], HL-60 [1]
Details	0.001 µM	0.01 µM	0.1 µM	1 µM	10 µM
co-treatment: AZD3965 100 nM	95.8	101	100.5	95.55	96.1
co-treatment: DMSO vehicle	99.4	100	103	99.8	103
co-treatment: GSK2194069 100 nM	81.7	94.56	96.8	95.1	92.2
co-treatment: pictilisib 100 nM	79.4	97.3	93.9	99.7	96.7

HL-60 [2]
Details	area under dose-response curve
co-treatment: AZD3965 100 nM	< 0.0301
co-treatment: DMSO vehicle	< 0.0301
co-treatment: GSK2194069 100 nM	< 0.0301
co-treatment: pictilisib 100 nM	< 0.0301

CS(=O)(=O)N1CCN(Cc2cc3nc(-c4cccc5[nH]ncc45)nc(N4CCOCC4)c3s2)CC1 [Pictilisib]
Details	IC50 (cell viability) [µM]	area under dose-response curve
BV-173 [3]	> 10	–
HEL [25]	> 10	–
HL-60 [4]	0.0159	–
K-562 [5]	1.27	–
KCL-22 [26]	> 10	–
KG-1 [27]	> 10	–
KU-812 [6]	> 10	–
LAMA-84 [7]	> 10	–
ML-2 [28]	9.06	–
MOLM-13 [8]	0.969	–
MV4-11 [9]	1.19	–
Mono-Mac-6 [10]	> 10	–
NOMO-1 [11]	> 10	–
SHI-1 [12]	0.987	–
THP-1 [13]	> 10	–
[33]	–	0.456
[34]	–	0.0959
[35]	–	< 0.0301
[36]	–	< 0.0301
[37]	–	0.529
[38]	–	0.439
[39]	–	0.538
[40]	–	< 0.0301
[41]	–	0.519
[42]	–	0.294
[43]	–	0.384
[44]	–	0.0368
[45]	–	0.507
[46]	–	0.536
[47]	–	0.257

CCC(C)(C)C(=O)O[C@H]1C[C@@H](C)C=C2C=C[C@H](C)[C@H](CC[C@@H]3C[C@@H](O)CC(=O)O3)[C@H]21 [Simvastatin]
Details	IC50 (cell viability) [µM]
BV-173 [3]	> 10
HEL [25]	> 10
HL-60 [4]	> 10
K-562 [5]	> 10
KCL-22 [26]	> 10
KG-1 [27]	> 10
KU-812 [6]	> 10
LAMA-84 [7]	> 10
ML-2 [28]	> 10
MOLM-13 [8]	> 10
MV4-11 [9]	> 10
Mono-Mac-6 [10]	> 10
NOMO-1 [11]	> 10
SHI-1 [12]	> 10
THP-1 [13]	> 10

CCOC(=O)c1ccc(-c2ccc(OC(=O)N(C)Cc3cccc(-c4ccncc4)c3)cc2)cc1 [WWL 113]
cell viability [%], HL-60 [1]
Details	0.001 µM	0.01 µM	0.1 µM	1 µM	10 µM
co-treatment: AZD3965 100 nM	99.55	98.5	94	97.8	101
co-treatment: DMSO vehicle	106	102	98.3	102.3	102
co-treatment: GSK2194069 100 nM	99.6	96	86.5	97.09	101
co-treatment: pictilisib 100 nM	101.2	103	85.6	96.7	101

CC/C=C\C[C@H]1C(=O)CC[C@@H]1CC(=O)OC [methyl jasmonate]
cell viability [%], HL-60 [1]
Details	0.001 µM	0.01 µM	0.1 µM	1 µM	10 µM
co-treatment: AZD3965 100 nM	98.2	106	100.7	105	106
co-treatment: DMSO vehicle	101	99.7	97.6	102.5	102
co-treatment: GSK2194069 100 nM	95.5	99.5	98.1	93.3	105
co-treatment: pictilisib 100 nM	96.58	104	101	109	99.6

HL-60 [2]
Details	area under dose-response curve
co-treatment: AZD3965 100 nM	< 0.0301
co-treatment: DMSO vehicle	< 0.0301
co-treatment: GSK2194069 100 nM	< 0.0301
co-treatment: pictilisib 100 nM	< 0.0301
